Where two headings read alike, the source gives them in different places.
What was measured:
[1] = tested on: HIV-1 (IIIB) in MT-4 cells; test: MT-4 HIV assay; type: cell-based
Summary of the method: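 MT-4 cells infected with HIV-1 IIIB (1:250 stock dilution) were incubated with 1:3 serially diluted compounds in RPMI with 10% FBS for 5 days at 37 °C. Cell Titer Glo luminescence was the readout. Plates included mock-infected wells, no-drug wells and 5 uM AZT controls.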

[2] = Summary of the method: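 Test compounds at 1 uM incubated in duplicate with dog, rat and human liver microsomes (0.5 mg/mL protein) plus NADPH-regenerating system; sampled at 2, 12, 25, 45 and 65 minutes. Parent remaining monitored by LC/MS/MS; Clint calculated from in vitro t1/2.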
[3] = Human immunodeficiency virus 1, MT4, 120 h, HIV-1 (IIIB), MT-4 cells, 5 days, Cell Titer Glo, read-out: EC50
[4] = Human immunodeficiency virus 1, MT4, 120 h
[5] = human liver microsomes 0.5 mg/mL, 1 uM compound, NADPH
[6] = rat liver microsomes 0.5 mg/mL, 1 uM compound, NADPH

| Molecule | EC50 [1, 3] [nM] | Human Pred Cl. ([2]; human, microsomes) [L/H/kg] | Rat. Pred. Cl. ([2]; rat, microsomes) [L/H/kg] | EC50 ([1]; HIV-1 (IIIB), MT-4 cells, 5 days, Cell Titer Glo, read-out: EC50) [nM] | EC50 [1, 4] [nM] | Human Pred Cl. [2, 5] [L/H/kg] | Rat. Pred. Cl. [2, 6] [L/H/kg] |
| --- | --- | --- | --- | --- | --- | --- | --- |
| COC(=O)N[C@H](C(=O)NN(Cc1ccc(-c2ccn(C(F)F)n2)cc1)C[C@H](O)[C@H](Cc1ccc(C#Cc2ccc(N3CC4CCC(C3)N4C3COC3)nc2)cc1)NC(=O)[C@@H](NC(=O)OC)C(C)(C)C(F)(F)F)C(C)(C)C [Example 85, Methyl ((5S,8S,9S,14S)-11-(4-(1-(difluoromethyl)-1H-pyrazol-3-yl)benzyl)-9-hydroxy-15,15-dimethyl-8-(4-((6-(8-(oxetan-3-yl)-3,8-diazabicyclo[3.2.1]octan-3-yl)pyridin-3-yl)ethynyl)benzyl)-3,6,13-trioxo-5-(1,1,1-trifluoro-2-methylpropan-2-yl)-2-oxa-4,7,11,12-tetraazahexadecan-14-yl)carbamate] | 3.78 | 0.13 | 0.19 |  |  |  |  |
| COC(=O)N[C@H](C(=O)N[C@@H](Cc1ccc(-c2ccc(N3CC4CCC(C3)N4C3COC3)nc2)cc1)[C@@H](O)CN(Cc1c(F)cc(-c2ccn(CC(F)F)n2)cc1F)NC(=O)[C@@H](NC(=O)OC)C(C)(C)C(F)(F)F)C(C)(C)C(F)(F)F [Example 195, methyl ((5S,8S,9S,14S)-11-(4-(1-(2,2-difluoroethyl)-1H-pyrazol-3-yl)-2,6-difluorobenzyl)-16,16,16-trifluoro-9-hydroxy-15,15-dimethyl-8-(4-(6-(8-(oxetan-3-yl)-3,8-diazabicyclo[3.2.1]octan-3-yl)pyridin-3-yl)benzyl)-3,6,13-trioxo-5-(1,1,1-trifluoro-2-methylpropan-2-yl)-2-oxa-4,7,11,12-tetraazahexadecan-14-yl)carbamate] | 2.76 | 0.12 | 0.52 |  |  |  |  |
| COC(=O)N[C@H](C(=O)N[C@@H](Cc1ccc(-c2ccc(N3CC4CCC(C3)N4C3COC3)nc2)cc1)[C@@H](O)CN(Cc1c(F)cc(-c2ccc(N3CC4CCC(C3)N4C3COC3)nc2)cc1F)NC(=O)[C@@H](NC(=O)OC)C(C)(C)C(F)(F)F)C(C)(C)C(F)(F)F [Example 203, Methyl ((5S,8S,9S,14S)-11-(2,6-difluoro-4-(6-(8-(oxetan-3-yl)-3,8-diazabicyclo [3.2.1]octan-3-yl)pyridin-3-yl)benzyl)-16,16,16-trifluoro-9-hydroxy-15,15-dimethyl-8-(4-(6-(8-(oxetan-3-yl)-3,8-diazabicyclo[3.2.1]octan-3-yl)pyridin-3-yl)benzyl)-3,6,13-trioxo-5-(1,1,1-trifluoro-2-methylpropan-2-yl)-2-oxa-4,7,11,12-tetraazahexadecan-14-yl)carbamate] | 5.02 | 0.32 | 1.09 |  |  |  |  |
| COC(=O)N[C@H](C(=O)N[C@@H](Cc1ccc(C#Cc2ccc(N3CC4CCC(C3)N4C3COC3)nc2)cc1)[C@@H](O)CN(Cc1c(F)cc(-c2ccc(C)cn2)cc1F)NC(=O)[C@@H](NC(=O)OC)C(C)(C)C(F)(F)F)C(C)(C)C(F)(F)F [Example 229, Methyl ((5S,8S,9S,14S)-11-(2,6-difluoro-4-(5-methylpyridin-2-yl)benzyl)-16,16,16-trifluoro-9-hydroxy-15,15-dimethyl-8-(4-((6-(8-(oxetan-3-yl)-3,8-diazabicyclo [3.2.1]octan-3-yl)pyridin-3-yl)ethynyl)benzyl)-3,6,13-trioxo-5-(1,1,1-trifluoro-2-methylpropan-2-yl)-2-oxa-4,7,11,12-tetraazahexadecan-14-yl)carbamate] | 7.86 | <0.11 | 0.26 |  |  |  |  |
| COC(=O)N[C@H](C(=O)N[C@@H](Cc1ccc(C#Cc2ccc(N3CC4CCC(C3)N4C3(C)COC3)nc2)cc1)[C@@H](O)CN(Cc1c(F)cc(-c2ccn(C(F)F)n2)cc1F)NC(=O)[C@@H](NC(=O)OC)C(C)(C)C(F)(F)F)C(C)(C)C(F)(F)F [Example 144, Methyl ((5S,8S,9S,14S)-11-(4-(1-(difluoromethyl)-1H-pyrazol-3-yl)-2,6-difluorobenzyl)-16,16,16-trifluoro-9-hydroxy-15,15-dimethyl-8-(4-((6-(8-(3-methyloxetan-3-yl)-3,8-diazabicyclo[3.2.1]octan-3-yl)pyridin-3-yl)ethynyl)benzyl)-3,6,13-trioxo-5-(1,1,1-trifluoro-2-methylpropan-2-yl)-2-oxa-4,7,11,12-tetraazahexadecan-14-yl)carbamate] | 5.12 | 0.95 |  |  |  |  |  |
| Methyl ((5S,8S,9S,14S)-11-(4-(1-(difluoromethyl)-1H-pyrazol-4-yl)-2,6-difluorobenzyl)-16,16,16-trifluoro-9-hydroxy-15,15-dimethyl-8-(4-((6-(4-(oxetan-3-yl)piperazin-1-yl)pyridin-3-yl)ethynyl)benzyl)-3,6,13-trioxo-5-(1,1-trifluoro-2-methylpropan-2-yl)-2-oxa-4,7,11,12-tetraazahexadecan-14-yl)carbamate [Example 116] |  | 0.19 | 0.39 | 2.79 |  |  |  |
| COC(=O)N[C@H](C(=O)N[C@@H](Cc1ccc(C#Cc2ccc(N3C[C@@H]4C[C@H]3CN4C3COC3)nc2)cc1)[C@@H](O)CN(Cc1c(F)cc(-c2ccn(C3CC3)n2)cc1F)NC(=O)[C@@H](NC(=O)OC)C(C)(C)C(F)(F)F)C(C)(C)C(F)(F)F [Example 39, Methyl ((5S,8S,9S,14S)-11-(4-(1-cyclopropyl-1H-pyrazol-3-yl)-2,6-difluorobenzyl)-16,16,16-trifluoro-9-hydroxy-15,15-dimethyl-8-(4-((6-((1S,4S)-5-(oxetan-3-yl)-2,5-diazabicyclo[2.2.]heptan-2-yl)pyridin-3-yl)ethynyl)benzyl)-3,6,13-trioxo-5-(1,1,1-trifluoro-2-methylpropan-2-yl)-2-oxa-4,7,11,12-tetraazahexadecan-14-yl)carbamate] |  |  |  |  | 2.57 | 0.15 | 0.54 |
| COC(=O)N[C@H](C(=O)N[C@@H](Cc1ccc(C#Cc2ccc(N3CC4CCC(C3)N4C3COC3)nc2)cc1)[C@@H](O)CN(Cc1c(F)cc(-c2ccn(C(F)F)n2)cc1F)NC(=O)[C@@H](NC(=O)OC1COC1)C(C)(C)C)C(C)(C)C(F)(F)F [Example 184, methyl ((2S)-1-(((2S,3S)-4-(1-(4-(1-(difluoromethyl)-1H-pyrazol-3-yl)-2,6-difluorobenzyl)-2-((S)-3,3-dimethyl-2-(((oxetan-3-yloxy)carbonyl)amino)butanoyl)hydrazinyl)-3-hydroxy-1-(4-((6-(8-(oxetan-3-yl)-3,8-diazabicyclo[3.2.1]octan-3-yl)pyridin-3-yl)ethynyl)phenyl)butan-2-yl)amino)-4,4,4-trifluoro-3,3-dimethyl-1-oxobutan-2-yl)carbamate] | 3.66 | <0.11 | <0.18 |  |  |  |  |
| COC(=O)N[C@H](C(=O)N[C@@H](Cc1ccc(-c2cnc(N3CC4CCC(C3)N4C3COC3)nc2)cc1)[C@@H](O)CN(Cc1c(F)cc(-c2ccn(CC(F)F)n2)cc1F)NC(=O)[C@@H](NC(=O)OC)C(C)(C)C(F)(F)F)C(C)(C)C(F)(F)F [Example 197, Methyl ((5S,8S,9S,14S)-11-(4-(1-(2,2-difluoroethyl)-1H-pyrazol-3-yl)-2,6-difluorobenzyl)-16,16,16-trifluoro-9-hydroxy-15,15-dimethyl-8-(4-(2-(8-(oxetan-3-yl)-3,8-diazabicyclo[3.2.1]octan-3-yl)pyrimidin-5-yl)benzyl)-3,6,13-trioxo-5-(1,1,1-trifluoro-2-methylpropan-2-yl)-2-oxa-4,7,11,12-tetraazahexadecan-14-yl)carbamate] | 2.61 | <0.11 | 0.32 |  |  |  |  |
| COC(=O)N[C@H](C(=O)N[C@@H](Cc1ccc(C#Cc2ccc(N3CCN(C4COC4)CC3)nc2)cc1)[C@@H](O)CN(Cc1c(F)cc(-c2cc(F)ccn2)cc1F)NC(=O)[C@@H](NC(=O)OC)C(C)(C)C(F)(F)F)C(C)(C)C(F)(F)F [Example 98, Methyl ((5S,8S,9S,14S)-11-(2,6-difluoro-4-(4-fluoropyridin-2-yl)benzyl)-16,16,16-trifluoro-9-hydroxy-15,15-dimethyl-8-(4-((6-(4-(oxetan-3-yl)piperazin-1-yl)pyridin-3-yl)ethynyl)benzyl)-3,6,13-trioxo-5-(1,1,1-trifluoro-2-methylpropan-2-yl)-2-oxa-4,7,11,12-tetraazahexadecan-14-yl)carbamate] | 4.97 |  |  |  |  | 0.26 | 0.65 |
| COC(=O)N[C@H](C(=O)N[C@@H](Cc1ccc(C#Cc2cnc(N3CCN(C4COC4)CC3)nc2)cc1)[C@@H](O)CN(Cc1c(F)cc(-c2ccn(C(F)F)n2)cc1F)NC(=O)[C@@H](NC(=O)OC)C(C)(C)C(F)(F)F)C(C)(C)C(F)(F)F [Example 87, methyl ((5S,8S,9S,14S)-11-(4-(1-(difluoromethyl)-1H-pyrazol-3-yl)-2,6-difluorobenzyl)-16,16,16-trifluoro-9-hydroxy-15,15-dimethyl-8-(4-((2-(4-(oxetan-3-yl)piperazin-1-yl)pyrimidin-5-yl)ethynyl)benzyl)-3,6,13-trioxo-5-(1,1,1-trifluoro-2-methylpropan-2-yl)-2-oxa-4,7,11,12-tetraazahexadecan-14-yl)carbamate] |  |  |  |  | 4.26 | 0.13 | 0.23 |
